Test results from patent US20210109080A1, “Cell-Based Biosensor for Early Alzheimer's Disease Detection” (University of South Carolina, priority 2019, published 2021).
Where a SMILES comes first, the peptide text is derived from it. The star is where a group is joined. Cbz = O=C(OCc1ccccc1)*

Test system: HBMVEC monolayers
Assay: FITC-BSA transendothelial transfer / permeability coefficient (Pe) across HBMVEC monolayers
Format: cell-based, human
Conditions: 3 μM MG-132 pre-treatment 30 min, then 5 μM MIX 24 h
Description: HBMVEC monolayers were incubated alone (white circles), with 0.3-10 μM Aß aggregates (grey circles), or with TNF-α (positive control, black circles). (a) Following 24-h treatment, transfer of FITC-BSA from the apical to basolateral chamber was monitored via florescence. Error bars represent SEM, n=3. Increased permeability is evidenced by a faster transfer rate, or steeper slope. Following treatment with 5 μM Aß aggregates, the transfer rate is increased by approximately 10%. (b) TEER was monitored following addition of treatments (indicated by arrow). […] In the absence of Aß aggregates, TEER maintains a plateau, decreasing by less than 8% over 7 days.
HBMVEC monolayers were incubated alone (CONT, white circles), with Aß monomer (MON, diamonds), with Aß aggregate mixture containing small aggregates (MIX, circles), or with Aß fibrils (FIB, triangles). (a) Using FITC-BSA transfer rates, Pe was determined after 24-h treatment with Aß concentrations of 5 μM (white bars) and 10 μM (black bars). […] (b) TEER was monitored following addition of treatments at a concentration of 5 μM (indicated by arrow).
Pe is determined from the transfer rate of FITC-BSA and reported relative to untreated monolayers. […]
(a) Confluent HBMVEC monolayers were incubated for 30 min with 100 pM, 1 nM, 10 nM, or 1 μM isolated small soluble Aß aggregates (SOL) (RH=43-54 nm). […] Using FITC-BSA transfer rates, Pe was determined.

CC(C)C[C@@H](C=O)NC(=O)[C@H](CC(C)C)NC(=O)[C@H](CC(C)C)NC(=O)OCc1ccccc1 [MG-132] (Cbz-Leu-Leu-Leu-aldehyde)
effect on Aß-induced increase in Pe: Abrogation of the Aß-induced increase in Pe
